Data on 15 compounds can be found in ChEMBL document CHEMBL6071196, “Semisynthetic Tetramate-Containing Fungal Metabolites with Activity against Trichomonas vaginalis and Mycoplasma genitalium” (ACS Med Chem Lett, 2024).

pEC50, pIC50: −log10 of the molar value. Converted amounts (≈) assume the structure as drawn. The source made the active and inactive calls. The calls are words filed in the database; no cut-off is given here. Some results are limits rather than exact numbers.

Data set [1] has as its system Mycoplasma genitalium. Description: Antibacterial activity against Mycoplasma genitalium G37C assessed as growth inhibition at 2 uM relative to control. It counts as functional. The following applies: Mycoplasmoides genitalium.
For data set [2], the system named is Mycoplasma genitalium. Description: Antibacterial activity against Mycoplasma genitalium G37C assessed as bacterial growth inhibition incubated for 30 mins by qPCR analysis. The following applies: Mycoplasmoides genitalium, 0.5 h. It counts as functional, organism-based. (In general: Real-time PCR tracks product formation cycle by cycle.)
Data set [3] deals with Mycoplasma genitalium. Kind of data set: Antibacterial activity against Mycoplasma genitalium G37C assessed as growth inhibition at 3 uM measured after 1 month relative to control. It counts as functional, organism-based. Particulars: Mycoplasmoides genitalium, time 1.0 months.
Data set [4] concerns Mycoplasma genitalium. Description: Antibacterial activity against Mycoplasma genitalium G37C assessed as bacterial growth inhibition incubated for 7 days by phenol red reagent based microbroth dilution assay. Format: functional. Particulars: Mycoplasmoides genitalium, 168 h, time 7 day.
Data set [5] relates to Mycoplasma genitalium. Kind of data set: Antibacterial activity against Mycoplasma genitalium Sea-1 assessed as bacterial growth inhibition incubated for 30 mins by qPCR analysis. The following applies: Mycoplasmoides genitalium, Sea-1, 0.5 h. Format: functional, organism-based.
A short description of data set [6]: Selectivity index, ratio of IC50 for cytotoxicity against african green monkey Vero cells incubated for 48 hrs by celltiter blue assay to IC50 for antibacterial activity against Mycoplasma genitalium Sea-2 assessed as bacterial growth inhibition incubated for 30 mins by qPCR analysis. Format: toxicity, cell-based. Particulars: read-out: Ratio IC50. (The colour change of resazurin is a common sign of viable cells or microbes.)

In a further data set the test system is Trichomonas vaginalis. Kind of data set: Anti-trichomonal activity against Trichomonas vaginalis assessed as inhibition of parasite growth incubated for 18 hrs. It counts as functional, organism-based.
Data set [7] is described as follows: Selectivity index, ratio of IC50 for cytotoxicity against african green monkey Vero cells incubated for 48 hrs by celltiter blue assay to MIC for antibacterial activity against Mycoplasma genitalium G37C assessed as bacterial growth inhibition incubated for 7 days by phenol red reagent based microbroth dilution assay. Format: toxicity, cell-based. Particulars: read-out: Selectivity Index.

Data set [8] deals with Mycoplasma genitalium. Kind of data set: Antibacterial activity against Mycoplasma genitalium Sea-2 assessed as bacterial growth inhibition incubated for 30 mins by qPCR analysis. Format: functional, organism-based. The following applies: Mycoplasmoides genitalium, Sea-2, 0.5 h.
Data set [9] can be described thus: Selectivity index, ratio of IC50 for cytotoxicity against african green monkey Vero cells incubated for 48 hrs by celltiter blue assay to IC50 for antibacterial activity against Mycoplasma genitalium Sea-1 assessed as bacterial growth inhibition incubated for 30 mins by qPCR analysis. It counts as toxicity, cell-based. Particulars: read-out: Ratio IC50.
Data set [10] is described as follows: Selectivity index, ratio of IC50 for cytotoxicity against african green monkey Vero cells incubated for 48 hrs by celltiter blue assay to IC50 for antibacterial activity against Mycoplasma genitalium G37C assessed as bacterial growth inhibition incubated for 30 mins by qPCR analysis. Format: toxicity, cell-based. The following applies: read-out: Ratio IC50.

Data set [11] is described as follows: Selectivity index, ratio of IC50 for cytotoxicity against african green monkey Vero cells incubated for 48 hrs by celltiter blue assay to EC50 for anti-trichomonal activity against Trichomonas vaginalis assessed as inhibition of parasite growth incubated for 18 hrs. Format: toxicity, cell-based. Particulars: read-out: Ratio IC50/EC50.
For data set [12], the system named is Mycoplasma genitalium. Description: Antibacterial activity against Mycoplasma genitalium G37C assessed as growth inhibition at 0.4 uM relative to control. It counts as functional. Particulars: Mycoplasmoides genitalium.
Data set [13] relates to Mycoplasma genitalium. Description: Antibacterial activity against Mycoplasma genitalium G37C assessed as growth inhibition at 0.6 uM measured after 1 month relative to control. It counts as functional, organism-based. Particulars: Mycoplasmoides genitalium, time 1.0 months.

What is called inhibition is the relative decrease from the control value, in per cent. By pIC50 is commonly meant the negative decadic logarithm of the IC50, by convention in mol/L. By MIC90 is commonly meant an inhibitory concentration at the 90% level, which refers to growth in some studies and to a panel of isolates in others. As a reminder, the pEC50 is −log10 of the EC50, conventionally taken in molar units. Turning to `C/C=C/C=C/[C@H]1C(C)=C[C@H]2C[C@@H](C)CC[C@@H]2[C@@]1(C)/C(O)=C1\C(=O)[C@H](COCc2cn(CCc3ccc(O)cc3)nn2)N(C)C1=O`, the inhibition at 2 µM with Mycoplasma genitalium [1] stood at 90%. The pIC50 in the data set on Mycoplasma genitalium [2] was 5.92; in the data set on Mycoplasma genitalium [5], 6.10; with Mycoplasma genitalium [8] it was 6.00. Further, in the data set on Mycoplasma genitalium [3], the inhibition entry was “inactive”. Further, the MIC90 in the data set on Mycoplasma genitalium [4] was determined as 2.6 µM (≈ 1.6 µg/mL). Further, the selectivity ratio at 48 h worked out at 77 in data set [6], 29.7 in [7], 96 in data set [9] and 64 in data set [10]. The pEC50 in the data set with Trichomonas vaginalis was less than 5.00.
`C/C=C/C=C/[C@H]1C(C)=C[C@H]2C[C@@H](C)CC[C@@H]2[C@@]1(C)/C(O)=C1\C(=O)[C@@H](COCc2cn(Cc3ccc(C(=O)O)cc3)nn2)N(C)C1=O`: the MIC90 in the data set on Mycoplasma genitalium [4] is 19.9 µM (≈ 12.5 µg/mL). The selectivity ratio at 48 h is 12.8 in [11] and 1.5 in [7]. The negative-log EC50 (pEC50) in the data set with Trichomonas vaginalis was 5.66.
For `C/C=C/[C@@H]1C=C[C@@H]2C[C@H](C)CC[C@H]2[C@]1(C)/C(O)=C1/C(=O)N[C@@H](CO)C1=O`, in that order: 2.2 µM (≈ 0.791 µg/mL), 35.9, 40 and 5.60.
Take `C/C=C/C=C/[C@H]1C(C)=C[C@H]2C[C@@H](C)CC[C@@H]2[C@@]1(C)/C(O)=C1\C(=O)[C@@H](CO)N(C)C1=O`: the inhibition at 0.4 µM with Mycoplasma genitalium [12] stood at 90%. Also, the MIC90 in the data set with Mycoplasma genitalium [4] stood at 0.4 µM (≈ 0.165 µg/mL). The selectivity ratio at 48 h is 32.1 in data set [11] and 141 in data set [7]. For the same compound, in the data set on Trichomonas vaginalis, the pEC50 is 5.74. In addition, the inhibition result in the data set with Mycoplasma genitalium [13] is “inactive”.
With `C/C=C/C=C/[C@H]1C(C)=C[C@H]2C[C@@H](C)CC[C@@H]2[C@@]1(C)/C(O)=C1/C(=O)N[C@H](CO)C1=O`, the MIC90 in the data set with Mycoplasma genitalium [4] was 1 µM (≈ 0.4 µg/mL). The selectivity ratio at 48 h in data set [11] was 119; in data set [7], 94.8. The pEC50 with Trichomonas vaginalis was 6.10.
For `CCCCC[C@H]1[C@@H](C)C[C@H]2C[C@@H](C)CC[C@@H]2[C@@]1(C)/C(O)=C1\C(=O)[C@@H](CO)N(C)C1=O`, in that order: 0.5 µM (≈ 0.21 µg/mL), greater than 16, 64 and 5.68.
Take `C/C=C/[C@@H]1C=C[C@@H]2C[C@H](C)CC[C@H]2[C@]1(C)/C(O)=C1\C(=O)[C@H](CO)N(C)C1=O`: the MIC90 in the data set on Mycoplasma genitalium [4] turned out to be 0.3 µM (≈ 0.112 µg/mL). Further, the selectivity ratio at 48 h in data set [11] is 4.2; in data set [7], 46.9. Also, the pEC50 in the data set on Trichomonas vaginalis was 5.52.
For the compound `CCCCC[C@H]1C(C)=C[C@H]2C[C@@H](C)CC[C@@H]2[C@@]1(C)/C(O)=C1\C(=O)[C@@H](CO)N(C)C1=O`, the MIC90 in the data set on Mycoplasma genitalium [4] was 3.8 µM (≈ 1.59 µg/mL). In addition, the selectivity ratio at 48 h is greater than 170 in data set [11] and 32 in [7]. For the same compound, in the data set with Trichomonas vaginalis, the pEC50 was 6.15.
Taken in the same sequence, the figures for `C#CCOC[C@@H]1C(=O)/C(=C(/O)[C@@]2(C)[C@@H](/C=C/C=C/C[C@@H](C)O)C(C)=C[C@H]3C[C@@H](C)CC[C@@H]32)C(=O)N1C` were 6.3 µM (≈ 3.12 µg/mL), 24.3, 15.1 and 5.41.
Take `CC1=C[C@H]2C[C@@H](C)CC[C@@H]2[C@@](C)(/C(O)=C2\C(=O)[C@H](COCc3cn(CC4CCCCO4)nn3)N(C)C2=O)[C@H]1/C=C/C=C/C[C@@H](C)O` (some centres undefined): in data set [11], the selectivity ratio at 48 h was 19.6.
As to `CCCCCC1=C(C)C[C@H]2C[C@@H](C)CC[C@@H]2[C@@]1(C)/C(O)=C1\C(=O)[C@@H](CO)N(C)C1=O`, the MIC90 with Mycoplasma genitalium [4] is 29.9 µM (≈ 12.5 µg/mL). Moreover, the figures for the selectivity ratio at 48 h in data set [11] and in [7] were greater than 8 and 13.1, respectively. Further, in the data set on Trichomonas vaginalis, the pEC50 is less than 5.00.
Take `C#CCOC[C@@H]1C(=O)/C(=C(/O)[C@@]2(C)[C@@H](/C=C/C=C/C[C@@H](C)OCC#C)C(C)=C[C@H]3C[C@@H](C)CC[C@@H]32)C(=O)N1C`: the MIC90 with Mycoplasma genitalium [4] is 5.8 µM (≈ 3.1 µg/mL). For the same compound, the pEC50 with Trichomonas vaginalis is less than 5.00. The selectivity ratio at 48 h in data set [7] was found to be 14.
Taken in the same sequence, the figures for `C/C=C/C=C/[C@H]1C(C)=C[C@H]2C[C@@H](C)CC[C@@H]2[C@@]1(C)/C(O)=C1\C(=O)[C@@H](COCc2cn(CC3CCCCO3)nn2)N(C)C1=O` (some centres undefined) were 5.2 µM (≈ 3.08 µg/mL), less than 5.00 and 8.1.
In the case of `CC1=C[C@H]2C[C@@H](C)CC[C@@H]2[C@@](C)(/C(O)=C2\C(=O)[C@@H](CO)N(C)C2=O)[C@H]1/C=C/C=C/C[C@@H](C)O`, the MIC90 in the data set on Mycoplasma genitalium [4] was 0.9 µM (≈ 0.412 µg/mL). Further, the results for the selectivity ratio at 48 h in data set [11] and in [7] were 315 and 23.8, respectively. Further, the pEC50 in the data set with Trichomonas vaginalis was 7.22.
Taken in the same sequence, the figures for `CCCCC[C@H]1[C@H](C)C[C@H]2C[C@@H](C)CC[C@@H]2[C@@]1(C)/C(O)=C1\C(=O)[C@@H](CO)N(C)C1=O` were 3.8 µM (≈ 1.59 µg/mL), 72.6, 51.6 and 5.57.
